What was measured:
[1] = target: T1, inducible T cell kinase (ITK) (Homo sapiens, UniProt Q08881); details: described in patent document 1 (WO 2011/065402); cited from earlier work
T1 sequence (Q08881 1-620): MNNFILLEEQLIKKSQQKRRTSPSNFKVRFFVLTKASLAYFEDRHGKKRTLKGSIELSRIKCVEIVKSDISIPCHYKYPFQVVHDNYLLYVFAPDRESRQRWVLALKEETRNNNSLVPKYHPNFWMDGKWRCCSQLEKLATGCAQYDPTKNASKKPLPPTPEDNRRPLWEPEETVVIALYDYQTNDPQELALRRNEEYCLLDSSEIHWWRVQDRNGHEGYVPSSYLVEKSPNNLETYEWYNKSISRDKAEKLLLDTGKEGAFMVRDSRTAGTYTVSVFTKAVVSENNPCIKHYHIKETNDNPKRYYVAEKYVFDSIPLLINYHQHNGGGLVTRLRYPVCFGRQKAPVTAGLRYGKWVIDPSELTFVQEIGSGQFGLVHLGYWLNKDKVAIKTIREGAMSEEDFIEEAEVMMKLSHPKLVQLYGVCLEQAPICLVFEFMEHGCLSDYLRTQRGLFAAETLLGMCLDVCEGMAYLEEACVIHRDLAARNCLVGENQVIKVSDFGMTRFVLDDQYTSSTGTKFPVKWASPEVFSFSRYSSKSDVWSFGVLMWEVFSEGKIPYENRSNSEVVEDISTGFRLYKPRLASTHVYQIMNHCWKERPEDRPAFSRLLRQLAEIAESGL

[2] = tested on: rat anti-glomerular basement membrane (GBM) antibody induced nephritis model; experiment: rat anti-GBM antibody induced nephritis model (urinary protein excretion, plasma total cholesterol); assay type: in vivo; details: disease animal model showing nephrotic syndrome-like symptoms
Procedure: Using a rat anti-GBM antibody induced nephritis model, the suppressive effect of Compound A on an increase in urinary protein excretion and plasma total cholesterol concentration so was evaluated. The evaluation was performed by reference to non-patent document 2. As the experiment animal, 8-week-old female WKY/NCrlCrlj rat (CHARLES RIVER LABORATORIES JAPAN, INC.) was used. Monohydrochloride of Compound A was dissolved in 0.5% (w/v) methylcellulose (MC) to prepare 2 mg/mL and 6 mg/mL Compound A solutions. Ciclosporin (Wako Pure Chemical Industries, Ltd., 0.5% (w/v)) was suspended in MC to prepare a 2 mg/mL Ciclosporin suspension. […]
As for urine, the urine volume was measured, after which the protein concentration in the centrifugal supernatant was measured by absorbance at wavelength 600 nm/sub-wavelength 660 nm using a total protein assay kit (micro TP-Test Wako, Wako Pure Chemical Industries, Ltd.). The urinary protein excretion (mg/day) was calculated from the urine volume and the protein concentration.
As for blood, the total cholesterol concentration (mg/dL) in plasma obtained by centrifugation was measured using a biochemical automatic analysis apparatus (Hitachi automatic analysis apparatus 7180, Hitachi High-Technologies).
The mean of the urinary protein excretion and the plasma total cholesterol concentration was calculated.

SMILES: C[C@@H](C(=O)N(C)c1ccc2cc(-c3n[nH]c4c3CCC(C)(C)C4)[nH]c2c1)N1CCOCC1 [Compound A, N-[2-(6,6-dimethyl-4,5,6,7-tetrahydro-1H-indazol-3-yl)-1H-indol-6-yl]-N-methyl-(2S)-2-(morpholin-4-yl)propanamide]
- inducible T cell kinase (ITK) inhibitory activity [1]: has an inducible T cell kinase (ITK) inhibitory activity
- severity of the disease [2]: significantly reduce severity of the disease
